Measured values from ChEMBL document CHEMBL1144936, “Orally active oxime derivatives of the dopaminergic prodrug 6-(N,N-di-n-propylamino)-3,4,5,6,7,8-hexahydro-2H-naphthalen-1-one. Synthesis and pharmacological activity” (J Med Chem, 2003).
Activity calls are given as the source filed them. The rule behind the calls is not given here.

Assays:
Rattus norvegicus [1] = test: Effect of compound on total full contralateral turns at the dose of 10 mg/Kg administered perorally in ungerstedt rat model; […]; format: functional, organism-based
Rattus norvegicus [2] = test: Effect of compound on total full contralateral turns at the dose of 0.3 mg/Kg administered perorally in ungerstedt rat model; format: functional
Rattus norvegicus [3] = test: Effect of compound on total full contralateral turns at the dose of 1.0 mg/Kg administered perorally in ungerstedt rat model; format: functional
D(2) dopamine receptor [4] = molecular target: D(2) dopamine receptor (Homo sapiens, UniProt P14416); test: Tested for percent intrinsic activity towards Dopamine receptor D2 in CHO cells; format: cell-based
D(2) dopamine receptor [5] = molecular target: D(2) dopamine receptor (Rattus norvegicus, UniProt P61169); test: In vitro binding affinity towards Dopamine receptor D2
D(1A) dopamine receptor = D(1A) dopamine receptor (Rattus norvegicus, UniProt P18901); test: In vitro binding affinity towards Dopamine receptor D1
Rattus norvegicus [6] = test: Effect of compound on total full contralateral turns at the dose of 10 mg/Kg administered perorally in ungerstedt rat model; format: functional

D(2) dopamine receptor (Rattus norvegicus, UniProt P61169), sequence (P61169 whole entry): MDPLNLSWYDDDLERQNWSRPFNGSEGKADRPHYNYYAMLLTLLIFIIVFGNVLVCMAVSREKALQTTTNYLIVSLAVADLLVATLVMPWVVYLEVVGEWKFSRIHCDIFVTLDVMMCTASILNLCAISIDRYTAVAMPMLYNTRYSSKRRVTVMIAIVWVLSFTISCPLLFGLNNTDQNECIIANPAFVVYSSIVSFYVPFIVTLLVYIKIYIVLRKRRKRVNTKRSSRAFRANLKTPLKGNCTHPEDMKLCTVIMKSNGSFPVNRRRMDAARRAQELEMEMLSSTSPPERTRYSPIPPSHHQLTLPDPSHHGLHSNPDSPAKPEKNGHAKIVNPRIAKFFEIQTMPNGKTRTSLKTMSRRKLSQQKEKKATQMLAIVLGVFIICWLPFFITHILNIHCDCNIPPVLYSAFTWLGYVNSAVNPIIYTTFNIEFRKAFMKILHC
D(2) dopamine receptor (Homo sapiens, UniProt P14416), sequence (P14416 whole entry): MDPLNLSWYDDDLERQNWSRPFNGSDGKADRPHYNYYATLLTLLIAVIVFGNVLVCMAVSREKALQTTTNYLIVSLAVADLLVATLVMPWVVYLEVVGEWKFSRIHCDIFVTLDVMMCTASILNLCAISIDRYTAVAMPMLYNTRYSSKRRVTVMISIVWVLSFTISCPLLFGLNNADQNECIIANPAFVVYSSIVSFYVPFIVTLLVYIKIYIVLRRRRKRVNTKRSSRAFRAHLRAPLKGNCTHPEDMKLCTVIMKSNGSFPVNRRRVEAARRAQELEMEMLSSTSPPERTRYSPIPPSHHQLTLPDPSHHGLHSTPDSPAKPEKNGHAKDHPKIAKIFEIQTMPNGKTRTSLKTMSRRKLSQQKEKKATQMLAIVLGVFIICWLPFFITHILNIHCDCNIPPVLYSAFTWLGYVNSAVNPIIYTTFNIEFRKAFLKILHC
D(1A) dopamine receptor, sequence (P18901 whole entry): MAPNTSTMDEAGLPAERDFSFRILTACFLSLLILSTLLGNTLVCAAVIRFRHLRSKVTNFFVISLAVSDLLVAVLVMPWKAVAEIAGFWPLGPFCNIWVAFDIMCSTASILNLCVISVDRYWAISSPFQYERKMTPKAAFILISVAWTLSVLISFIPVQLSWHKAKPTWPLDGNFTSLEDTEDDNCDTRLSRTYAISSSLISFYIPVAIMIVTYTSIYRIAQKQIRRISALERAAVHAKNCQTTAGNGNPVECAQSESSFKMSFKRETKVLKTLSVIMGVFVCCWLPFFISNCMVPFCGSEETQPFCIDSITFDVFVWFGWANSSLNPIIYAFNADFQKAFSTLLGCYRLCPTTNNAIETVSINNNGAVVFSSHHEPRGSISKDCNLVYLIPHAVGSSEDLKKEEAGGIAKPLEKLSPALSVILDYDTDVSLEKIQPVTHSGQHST

Structure (SMILES) | Turns (Rattus norvegicus [2]) | Turns (Rattus norvegicus [3]) | further results
CCCN(CCC)C1CCC2=C(CCC/C2=N\OC(=O)c2ccc(C)cc2)C1 (stereo unspecified) | – | – | Turns (Rattus norvegicus [1]): inactive
CCCO/N=C1\CCCC2=C1CCC(N(CCC)CCC)C2 (stereo unspecified) | 943 | 5406 | –
CCCN(CCC)C1CCC2=C(CCC/C2=N\OC)C1 (racemic) | 1007 | 5295 | EC50 (D(2) dopamine receptor [4]): > 1000 nM; Ki (D(2) dopamine receptor [5]): 2300 nM
CCCN(CCC)C1CCC2=C(CCC/C2=N\OC(C)(C)C)C1 (stereo unspecified) | – | 2118 | –
CCCN(CCC)C1CCC2=C(CCC/C2=N\OCc2ccccc2)C1 (stereo unspecified) | 1652 | 4702 | –
CCCN(CCC)C1CCc2c(ccc(O)c2O)C1 (racemic) | – | – | Ki (D(1A) dopamine receptor): 170 nM; Ki (D(2) dopamine receptor [5]): 3 nM
CCCN(CCC)C1CCC2=C(CCC/C2=N\OC(=O)C(C)C)C1 (stereo unspecified) | 152 | – | –
CCCN(CCC)C1CCC2=C(CCC/C2=N\OC(=O)C(C)(C)C)C1 (stereo unspecified) | 187 | – | –
CCCN(CCC)C1CCC2=C(CCC/C2=N\OC(C)=O)C1 (stereo unspecified) | 365 | – | –
CCCCO/N=C1\CCCC2=C1CCC(N(CCC)CCC)C2 (stereo unspecified) | – | 1364 | –
CCCN(CCC)C1CCC2=C(CCC/C2=N\OCC)C1 (stereo unspecified) | 176 | 4217 | –
CCCN(CCC)C1CCC2=C(CCC/C2=N\OC(=O)c2ccccc2)C1 (stereo unspecified) | – | 2208 | –
CCCN(CCC)[C@H]1CCC2=C(CCC/C2=N\OC)C1 | – | – | Turns (Rattus norvegicus [6]): 2014
CCCN(CCC)[C@H]1CCC2=C(CCC/C2=N\OC(C)=O)C1 | 2007 | – | –
